Reference: ChEMBL document CHEMBL3045608, “Docking simulations, synthesis, and anti-inflammatory activity evaluation of 2-(N-alkyl)amino-3-nitroimidazo[1,2-a]pyridines” (Med Chem Res, 2012)
The source made the active and inactive calls. No cut-off for these calls is given here.

Columns and labels:
[1] = biological target: Prostaglandin G/H synthase 1 (Homo sapiens) (UniProt P23219); experiment: Binding affinity to COX1 (unknown origin)
[2] = biological target: T1, Prostaglandin G/H synthase 2 (Homo sapiens) (UniProt P35354); experiment: Binding affinity to COX2 (unknown origin)
T1 sequence (whole entry): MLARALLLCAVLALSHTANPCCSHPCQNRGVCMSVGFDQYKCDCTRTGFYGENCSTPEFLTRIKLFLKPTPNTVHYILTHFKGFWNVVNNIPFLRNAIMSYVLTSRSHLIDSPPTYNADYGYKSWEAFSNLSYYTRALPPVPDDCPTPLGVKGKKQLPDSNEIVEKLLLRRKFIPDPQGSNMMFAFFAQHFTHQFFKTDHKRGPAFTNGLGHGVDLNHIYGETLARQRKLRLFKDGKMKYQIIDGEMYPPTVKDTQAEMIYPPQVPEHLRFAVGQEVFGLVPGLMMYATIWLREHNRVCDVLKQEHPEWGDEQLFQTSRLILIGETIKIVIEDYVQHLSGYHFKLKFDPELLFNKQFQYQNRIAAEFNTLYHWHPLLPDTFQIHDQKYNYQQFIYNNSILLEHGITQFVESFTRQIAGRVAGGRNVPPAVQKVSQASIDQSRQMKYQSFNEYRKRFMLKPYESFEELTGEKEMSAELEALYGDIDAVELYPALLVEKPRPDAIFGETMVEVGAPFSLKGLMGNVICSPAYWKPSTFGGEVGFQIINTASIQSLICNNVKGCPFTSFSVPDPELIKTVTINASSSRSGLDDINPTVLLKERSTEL

Rattus norvegicus [3] = experiment: Gastrointestinal toxicity in Rattus norvegicus Wistar (rat) assessed as induction of stomach macroscopic damage at 20 mg/kg, po measured on day 8; assay type: organism-based; set-up: dose 20 mg/kg, route oral; details: in vivo
Rattus norvegicus [4] = experiment: Anti-inflammatory activity in Rattus norvegicus Wistar (rat) assessed as decrease in cotton pellet-induced wet weight of granuloma at 20 mg/kg, po measured on day 8; assay type: functional, organism-based; set-up: dose 20 mg/kg
Rattus norvegicus [5] = experiment: Gastrointestinal toxicity in Rattus norvegicus Wistar (rat) assessed as induction of duodenum macroscopic damage at 20 mg/kg, po measured on day 8; assay type: organism-based; set-up: dose 20 mg/kg, route oral; details: in vivo
Rattus norvegicus [6] = experiment: Anti-inflammatory activity in Rattus norvegicus Wistar (rat) assessed as decrease in cotton pellet-induced total weight of granuloma at 20 mg/kg, po measured on day 8; assay type: functional, organism-based; set-up: dose 20 mg/kg
Rattus norvegicus [7] = experiment: Anti-inflammatory activity in Rattus norvegicus Wistar (rat) assessed as decrease in cotton pellet-induced dry weight of granuloma at 20 mg/kg, po measured on day 8; assay type: functional, organism-based; set-up: dose 20 mg/kg
[8] = biological target: T2, Prostaglandin G/H synthase 1 (Ovis aries) (UniProt P05979); experiment: Inhibition of Ovis aries (sheep) COX1 at 0.1 uM by colorimetric analysis
T2 sequence (whole entry): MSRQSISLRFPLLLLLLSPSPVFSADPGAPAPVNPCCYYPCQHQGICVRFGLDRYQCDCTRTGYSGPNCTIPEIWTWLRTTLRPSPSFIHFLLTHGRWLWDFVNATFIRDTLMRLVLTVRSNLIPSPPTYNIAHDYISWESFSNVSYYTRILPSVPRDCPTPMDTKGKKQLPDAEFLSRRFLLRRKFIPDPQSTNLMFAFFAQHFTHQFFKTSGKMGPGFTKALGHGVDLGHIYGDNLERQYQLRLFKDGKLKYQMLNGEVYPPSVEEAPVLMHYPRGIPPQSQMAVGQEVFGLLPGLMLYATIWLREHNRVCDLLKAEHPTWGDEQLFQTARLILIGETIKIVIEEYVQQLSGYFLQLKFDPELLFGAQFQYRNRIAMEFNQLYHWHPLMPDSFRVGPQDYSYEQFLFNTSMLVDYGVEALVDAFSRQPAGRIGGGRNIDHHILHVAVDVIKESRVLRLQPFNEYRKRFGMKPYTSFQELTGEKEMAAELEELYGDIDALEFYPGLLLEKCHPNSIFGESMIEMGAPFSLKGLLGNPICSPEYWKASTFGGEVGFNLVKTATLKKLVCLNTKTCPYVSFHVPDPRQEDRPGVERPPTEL

Rattus norvegicus [9] = experiment: Anti-inflammatory activity in Rattus norvegicus Wistar (rat) assessed as decrease in cotton pellet-induced granuloma weight at 20 mg/kg, po measured on day 8; assay type: functional, organism-based; set-up: dose 20 mg/kg

Prostaglandin G/H synthase 1 (Homo sapiens), sequence (P23219 whole entry): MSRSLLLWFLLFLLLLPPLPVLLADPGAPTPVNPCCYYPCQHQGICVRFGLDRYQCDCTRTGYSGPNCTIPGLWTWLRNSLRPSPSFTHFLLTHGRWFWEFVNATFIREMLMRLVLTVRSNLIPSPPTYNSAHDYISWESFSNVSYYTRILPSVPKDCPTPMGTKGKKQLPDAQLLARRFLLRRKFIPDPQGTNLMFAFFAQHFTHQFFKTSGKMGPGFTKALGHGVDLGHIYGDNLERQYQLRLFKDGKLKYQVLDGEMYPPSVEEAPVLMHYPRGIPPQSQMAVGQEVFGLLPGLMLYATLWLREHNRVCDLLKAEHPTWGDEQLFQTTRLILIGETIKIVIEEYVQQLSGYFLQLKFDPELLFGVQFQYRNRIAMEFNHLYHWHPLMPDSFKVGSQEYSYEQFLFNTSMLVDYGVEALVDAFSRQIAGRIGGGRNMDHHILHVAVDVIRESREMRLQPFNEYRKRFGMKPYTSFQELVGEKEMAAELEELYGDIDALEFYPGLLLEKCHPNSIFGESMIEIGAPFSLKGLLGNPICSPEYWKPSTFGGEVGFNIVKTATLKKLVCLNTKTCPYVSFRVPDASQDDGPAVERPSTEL

SMILES	Activity [1]	Activity [2]	Activity (Rattus norvegicus [3])	Activity (Rattus norvegicus [5])	further results
O=[N+]([O-])c1c(NC2CCCCC2)nc2ccccn12	Active	Active			
C[C@@H](Nc1nc2ccccn2c1[N+](=O)[O-])c1ccccc1	Active	Active			
C[C@H](Nc1nc2ccccn2c1[N+](=O)[O-])c1ccccc1	Active				
O=[N+]([O-])c1c(NCc2ccccc2)nc2ccccn12	Active	Active	Non-toxic	Non-toxic	Activity (Rattus norvegicus [9]): inactive

Continued, in another order:

Activity [1]	Activity [2]	SMILES	Activity (Rattus norvegicus [3])	Activity (Rattus norvegicus [5])	further results
Active		CC(C)Nc1nc2ccccn2c1[N+](=O)[O-]			
Active		CCCCNc1nc2ccccn2c1[N+](=O)[O-]			
Active		O=[N+]([O-])c1c(NC2CC2)nc2ccccn12	Non-toxic	Non-toxic	Activity (Rattus norvegicus [4]): Active; Activity (Rattus norvegicus [6]): Active; Activity (Rattus norvegicus [7]): Active; inhibition [8]: 3.8%
Active		CCCCN(CCCC)c1nc2ccccn2c1[N+](=O)[O-]			
Active		CC(C)N(c1nc2ccccn2c1[N+](=O)[O-])C(C)C	Non-toxic	Non-toxic	Activity (Rattus norvegicus [9]): inactive
